{"source": "patent US10051861B2", "about": "“N-arylamidine-substituted trifluoroethyl sulfide derivatives as acaricides and insecticides” (BAYER CROPSCIENCE AG, priority 2011, dated 2018)", "key": {"[1]": {"test_system": "greenhouse red spider mite (Tetranychus urticae)", "test": "Tetranychus urticae spray test, OP-resistant (TETRUR), bean plants", "assay_type": "in vivo", "conditions": "after 7 days", "procedure": "Solvents: 7 parts by weight of dimethylformamide\nEmulsifier: 2 part by weight of alkylaryl polyglycol ether\nIf the addition of ammonium salts or/and penetrants is required, these are in each case added in a concentration of 1000 ppm to the solution of the preparation.\nBean plants (Phaseolus vulgaris) which are heavily infested by all stages of the greenhouse red spider mite (Tetranychus urticae) are treated by spraying with the active compound preparation of the desired concentration."}, "[2]": {"test_system": "greenhouse red spider mite (Tetranychus urticae)", "test": "Tetranychus urticae spray test, OP-resistant (TETRUR), bean leaf disks", "assay_type": "in vivo", "conditions": "for pest or weed control at 500 g/ha: Tetranychus urticae, foliar, 144 h, read-out: efficacy (spider mites killed)", "procedure": "(§1) After 6 days, the effect in % is determined."}, "[3]": {"test_system": "larvae of the mustard beetle (Phaedon cochleariae)", "test": "Phaedon test (PHAECO spray treatment)", "conditions": "application rate 500 g/ha, after 7 days"}, "Meloidogyne incognita": {"test_system": "Meloidogyne incognita", "test": "Meloidogyne incognita test (MELGIN)", "assay_type": "in vivo", "conditions": "application rate 20 ppm, after 14 days", "procedure": "Solvents: 80.0 parts by weight of acetone\nContainers are filled with sand, solution of active compound, Meloidogyne incognita egg/larvae suspension and lettuce seeds. The lettuce seeds germinate and the plants develop. On the roots, galls are formed.\nAfter 14 days, the nematicidal efficacy in % is determined by the formation of galls. 100% means that no galls have been found; 0% means that the number of galls on the treated plants corresponds to the untreated control."}, "[4]": {"test_system": "L1 larvae of the Australian sheep blowfly (Lucilia cuprina)", "test": "Lucilia cuprina test (LUCICU)", "assay_type": "in vivo", "conditions": "application rate 100 ppm, after 2 days", "procedure": "(§2) Solvent: dimethyl sulfoxide\nAbout 20 L1 larvae of the Australian sheep blowfly (Lucilia cuprina) are transferred into a test vessel containing minced horsemeat and the active compound preparation of the desired concentration.\nAfter 2 days, the kill in % is determined."}, "[5]": {"test_system": "cattle ticks (Boophilus microplus)", "test": "Boophilus microplus injection test (BOOPMI Inj)", "assay_type": "in vivo", "conditions": "for pest or weed control at 0.02 mg: Rhipicephalus microplus, 168 h, read-out: efficacy (laying of fertile eggs)", "procedure": "as §2\n1 μl of the active compound solution is injected into the abdomen of 5 engorged adult female cattle ticks (Boophilus microplus). The animals are transferred into dishes and kept in a climate-controlled room.\n(§3) The activity is assessed after 7 days by laying of fertile eggs. Eggs whose fertility is not visible from the outside are stored in a climate-controlled cabinet until the larvae hatch after about 42 days. An efficacy of 100% means that none of the ticks has laid any fertile eggs; 0% means that all eggs are fertile."}, "[6]": {"test_system": "greenhouse red spider mite (Tetranychus urticae)", "test": "Tetranychus test, OP-resistant (TETRUR spray treatment)", "assay_type": "in vivo", "conditions": "application rate 500 g/ha, after 6 days", "procedure": "as §1"}, "[7]": {"test_system": "larvae of the mustard beetle (Phaedon cochleariae)", "test": "Phaedon cochleariae spray test (PHAECO)", "conditions": "for effect (beetle larvae killed): application rate 500 g/ha, after 7 days; for pest or weed control at 500 g/ha: Phaedon cochleariae, 168 h, read-out: effect (beetle larvae killed)"}, "[8]": {"test_system": "cattle ticks (Boophilus microplus) Parkhurst strain, SP-resistant", "test": "Boophilus microplus dip test (BOOPMI Dip)", "assay_type": "in vivo", "conditions": "application rate 100 ppm, after 7 days", "procedure": "Test animals: cattle ticks (Boophilus microplus) Parkhurst strain, SP-resistant\nas §2\n10 mg of active compound are dissolved in 0.5 ml of dimethyl sulfoxide. To prepare a suitable formulation, the active compound solution is diluted with water to the concentration desired in each case.\nThis active compound preparation is pipetted into tubes. 8-10 adult engorged female cattle ticks (Boophilus microplus) are transferred into a further tube with holes. The tube is immersed into the active compound formulation, and all ticks are completely wetted. After the liquid has run out, the ticks are transferred on filter disks into plastic dishes and stored in a climate-controlled room.\nas §3"}, "[9]": {"test_system": "nematode larvae (Cooperia curticei)", "test": "Cooperia curticei test (COOPCU)", "assay_type": "in vivo", "conditions": "application rate 100 ppm, after 5 days", "procedure": "as §2\nVessels containing the active compound preparation of the desired concentration are populated with about 40 nematode larvae (Cooperia curticei).\nAfter 5 days, the kill in % is determined."}, "Lucilia cuprina larvae": {"test_system": "Lucilia cuprina larvae", "test": "Lucilia cuprina (48 h)", "assay_type": "in vivo", "conditions": "application rate 100 ppm, after 48 hours", "procedure": "as §2\n10 mg of active compound are dissolved in 0.5 ml of dimethyl sulfoxide. To prepare a suitable formulation, the active compound solution is diluted with water to the concentration desired in each case. About 20 Lucilia cuprina larvae are introduced into a test tube which contains about 1 cm^3 of horse meat and 0.5 ml of the preparation of active compound to be tested. After 48 hours, the efficacy of the active compound preparation is determined as % larvae mortality."}, "[10]": {"test": "logP by HPLC on reversed-phase columns (C 18), EEC Directive 79/831 Annex V.A8", "assay_type": "physicochemical", "conditions": "for logP(HCOOH): pH 2.7; for logP(neutral): pH 7.8; for chromatographic logP: reversed-phase C18 HPLC column", "procedure": "Calibration is carried out using unbranched alkan-2-ones (having from 3 to 16 carbon atoms) with known log P values (the log P values are determined by the retention times using linear interpolation between two successive alkanones)."}, "Boophilus microplus": {"test_system": "Boophilus microplus", "test": "Boophilus microplus test (BOOPMI injection)", "assay_type": "in vivo", "design": "dose or concentration left out as unconfirmed", "conditions": "after 7 days", "procedure": "as §2\nThe solution of active compound is injected into the abdomen (Boophilus microplus), and the animals are transferred into dishes and kept in a climatized room. The activity is assessed by laying of fertile eggs.\n100% means that none of the ticks has laid any fertile eggs."}, "[11]": {"test_system": "green peach aphid (Myzus persicae)", "test": "Myzus persicae spray test (MYZUPE)", "assay_type": "in vivo", "conditions": "application rate 500 g/ha, after 6 days", "procedure": "as §1"}, "[12]": {"conditions": "application rate 500 g/ha, after 6 days"}, "[13]": {"conditions": "application rate 20 μg/animal, injection, after 7 days"}}, "note": "Where two headings read alike, the source gives them in different places. Marks after values point to notes of the source that are not given here.", "data": [{"smiles": "Cc1cc(C)c([S+]([O-])CC(F)(F)F)cc1/N=C1\\SCC(=O)N1C", "note": "(centres unmarked) [Ib-159]", "values": [{"measurement": "efficacy (spider mites killed)", "setting": "[1]; application rate 20 ppm", "value": 80, "unit": "%"}]}, {"smiles": "CCNC(=Nc1cc([S+]([O-])CC(F)(F)F)c(C)cc1F)C(F)(F)F", "note": "(centres unmarked) [Ib-02]", "values": [{"measurement": "efficacy (spider mites killed)", "setting": "[2]; [12]", "value": 100, "unit": "%"}, {"measurement": "efficacy (beetle larvae killed)", "setting": "[3]", "value": 100, "unit": "%"}, {"measurement": "nematicidal efficacy (formation of galls)", "setting": "Meloidogyne incognita", "value": 100, "unit": "%"}, {"measurement": "efficacy (kill of larvae)", "setting": "[4]", "value": 80, "unit": "%"}, {"measurement": "efficacy (laying of fertile eggs)", "setting": "[5]; [13]", "value": 100, "unit": "%"}, {"measurement": "efficacy (spider mites killed)", "setting": "[6]", "value": 100, "unit": "%"}, {"measurement": "effect (beetle larvae killed)", "setting": "[7]", "value": 100, "unit": "%"}]}, {"smiles": "Cc1cc(F)c(/N=C2\\CCCN2CC(F)(F)F)cc1[S+]([O-])CC(F)(F)F", "note": "(centres unmarked) [Ib-115, 2-Fluoro-4-methyl-N-[1-(2,2,2-trifluoroethyl)pyrrolidin-2-ylidene]-5-[(2,2,2-trifluoroethyl)sulfinyl]aniline]", "values": [{"measurement": "efficacy (laying of fertile eggs)", "setting": "[8]", "value": 100, "unit": "%"}, {"measurement": "pest or weed control at 500 g/ha", "setting": "[2]", "value": 100, "unit": "%"}, {"measurement": "pest or weed control at 0.02 mg", "setting": "[5]", "value": 100, "unit": "%"}, {"measurement": "pest or weed control at 500 g/ha", "setting": "[7]", "value": 100, "unit": "%"}]}, {"smiles": "CCN/C(=N\\c1cc(SCC(F)(F)F)c(Cl)cc1Cl)c1cccnc1", "note": "[Ia-220]", "values": [{"measurement": "pest or weed control at 500 g/ha", "setting": "[2]; [12]", "value": 90, "unit": "%"}, {"measurement": "efficacy (kill of larvae)", "setting": "[9]", "value": 100, "unit": "%"}]}, {"smiles": "Cc1cc(F)c(/N=C2\\CCCN2CC(F)F)cc1[S+]([O-])CC(F)(F)F", "note": "(centres unmarked) [Ib-33]", "values": [{"measurement": "efficacy (laying of fertile eggs)", "setting": "[8]", "value": 100, "unit": "%"}, {"measurement": "pest or weed control at 500 g/ha", "setting": "[2]; [12]", "value": 100, "unit": "%"}, {"measurement": "pest or weed control at 0.02 mg", "setting": "[5]; [13]", "value": 100, "unit": "%"}]}, {"smiles": "Cc1cc(F)c(/N=C(/N)C(F)(F)F)cc1[S+]([O-])CC(F)(F)F", "note": "(centres unmarked) [Ib-11]", "values": [{"measurement": "efficacy (spider mites killed)", "setting": "[2]; [12]", "value": 100, "unit": "%"}, {"measurement": "efficacy (beetle larvae killed)", "setting": "[3]", "value": 100, "unit": "%"}, {"measurement": "effect (% larvae mortality)", "setting": "Lucilia cuprina larvae", "value": 100, "unit": "%"}, {"measurement": "efficacy (kill of larvae)", "setting": "[4]", "value": 100, "unit": "%"}, {"measurement": "efficacy (laying of fertile eggs)", "setting": "[5]; [13]", "value": 100, "unit": "%"}, {"measurement": "logP(HCOOH)", "setting": "[10]", "value": 2.77}, {"measurement": "logP(neutral)", "setting": "[10]", "value": 2.71}, {"measurement": "effect (beetle larvae killed)", "setting": "[7]", "value": 100, "unit": "%"}, {"measurement": "efficacy (laying of fertile eggs)", "setting": "Boophilus microplus", "value": 100, "unit": "%"}]}, {"smiles": "N/C(=N/c1cc([S@@+]([O-])CC(F)(F)F)c(Cl)cc1Cl)C(F)(F)F", "note": "[Ib-44]", "values": [{"measurement": "effect (aphids killed)", "setting": "[11]", "value": 100, "unit": "%"}, {"measurement": "efficacy (spider mites killed)", "setting": "[1]; application rate 100 ppm", "value": 90, "unit": "%"}, {"measurement": "pest or weed control at 0.02 mg", "setting": "[5]; [13]", "value": 90, "unit": "%"}, {"measurement": "pest or weed control at 500 g/ha", "setting": "[7]", "value": 100, "unit": "%"}]}, {"smiles": "Cc1cc(F)c(/N=C2\\SCC(=O)N2CC(F)(F)F)cc1[S@+]([O-])CC(F)(F)F", "note": "[Ib-168]", "values": [{"measurement": "efficacy (spider mites killed)", "setting": "[1]; application rate 20 ppm", "value": 100, "unit": "%"}]}, {"smiles": "Cc1cc(C)c(SCC(F)(F)F)cc1N=C(N)C(F)(F)F", "note": "[Ia-07]", "values": [{"measurement": "efficacy (spider mites killed)", "setting": "[2]; [12]", "value": 100, "unit": "%"}, {"measurement": "nematicidal efficacy (formation of galls)", "setting": "Meloidogyne incognita", "value": 90, "unit": "%"}, {"measurement": "logP(HCOOH)", "setting": "[10]", "value": 3.36}, {"measurement": "logP(neutral)", "setting": "[10]", "value": 3.4}, {"measurement": "efficacy (spider mites killed)", "setting": "[6]", "value": 100, "unit": "%"}]}, {"smiles": "Cc1cc(F)c(N=C(N)C(F)(F)F)cc1SCC(F)(F)F", "note": "[Ia-21]", "values": [{"measurement": "efficacy (spider mites killed)", "setting": "[2]; [12]", "value": 100, "unit": "%"}, {"measurement": "effect (% larvae mortality)", "setting": "Lucilia cuprina larvae", "value": 100, "unit": "%"}, {"measurement": "efficacy (kill of larvae)", "setting": "[4]", "value": 100, "unit": "%"}, {"measurement": "efficacy (laying of fertile eggs)", "setting": "[5]; [13]", "value": 100, "unit": "%"}, {"measurement": "logP(neutral)", "setting": "[10]", "value": "3.12^[b]"}, {"measurement": "efficacy (laying of fertile eggs)", "setting": "Boophilus microplus", "value": 100, "unit": "%"}]}, {"smiles": "Cc1cc(F)c(/N=C2\\CCCN2CC(F)(F)F)cc1SCC(F)(F)F", "note": "[Ia-189, 2-fluoro-4-methyl-N-[1-(2,2,2-trifluoroethyl)pyrrolidin-2-ylidene]-5-[(2,2,2-trifluoroethyl)sulfanyl]aniline]", "values": [{"measurement": "efficacy (laying of fertile eggs)", "setting": "[8]", "value": 100, "unit": "%"}, {"measurement": "pest or weed control at 500 g/ha", "setting": "[2]", "value": 100, "unit": "%"}, {"measurement": "pest or weed control at 0.02 mg", "setting": "[5]", "value": 100, "unit": "%"}, {"measurement": "chromatographic logP", "setting": "[10]; pH 2.7, [a] LC-MS, acidic range, pH 2.7, 0.1% aqueous formic acid/acetonitrile, read-out: logP(HCOOH)", "value": 2.32}, {"measurement": "chromatographic logP", "setting": "[10]; pH 7.8, [b] LC-MS, neutral range, pH 7.8, 0.001 molar aqueous ammonium bicarbonate/acetonitrile, read-out: logP(neutral)", "value": 4.37}]}]}
